# Assay results as given in patent US10597388B2, “Pyridazinone herbicides” (FMC CORPORATION, priority 2014, dated 2020).
# What was measured:
# Experiment in all cases: Test C greenhouse herbicide test, pre- and postemergence
# Type in all cases: in vivo
# [1] = tested on: barnyardgrass (Echinochloa crus-galli)
# Excerpt: (§1) Seeds of plant species selected from blackgrass (Alopecurus myosuroides), ryegrass, Italian (Italian ryegrass, Lolium multiflorum), wheat (winter wheat, Triticum aestivum), galium (catchweed bedstraw, Galium aparine), corn (Zea mays), large crabgrass, large (large crabgrass, Digitaria sanguinalis), foxtail, giant (giant foxtail, Setaria faberii), johnsongrass (Sorghum halepense), lambsquarters (Chenopodium album), morningglory (Ipomoea coccinea), nutsedge, yellow (yellow nutsedge, Cyperus esculentus), pigweed (Amaranthus retroflexus), ragweed (common ragweed, Ambrosia elatior), soybean (Glycine max), barnyardgrass (Echinochloa crus-galli), oilseed rape (Brassica napus), waterhemp (common waterhemp, Amaranthus rudis), and velvetleaf (Abutilon theophrasti) were planted into a blend of loam soil and sand and treated preemergence with test chemicals formulated in a non-phytotoxic solvent mixture which included a surfactant.
# (§2) At the same time, plants selected from these crop and weed species and also chickweed (common chickweed, Stellaria media), kochia (Kochia scoparia), and oat, wild (wild oat, Avena fatua), were planted in pots containing Redi-Earth® planting medium (Scotts Company, 14111 Scottslawn Road, Marysville, Ohio 43041) comprising spaghnum peat moss, vermiculite, wetting agent and starter nutrients and treated with postemergence applications of test chemicals formulated in the same manner. Plants ranged in height from 2 to 18 cm (1- to 4-leaf stage) for postemergence treatments. Treated plants and controls were maintained in a greenhouse for 13 to 15 d, after which time all species were compared to controls and visually evaluated. Plant response ratings, summarized in Table C, are based on a scale of 0 to 100 where 0 is no effect and 100 is complete control. A dash (-) response means no test result.
# [2] = tested on: blackgrass (Alopecurus myosuroides)
# Excerpt: as §1, §2
# corn (Zea mays) = tested on: corn (Zea mays)
# Excerpt: as §1, §2
# [3] = tested on: crabgrass, large (large crabgrass, Digitaria sanguinalis)
# Excerpt: as §1, §2
# [4] = tested on: foxtail, giant (giant foxtail, Setaria faberii)
# Excerpt: as §1, §2
# [5] = tested on: galium (catchweed bedstraw, Galium aparine)
# Excerpt: as §1, §2
# [6] = tested on: johnsongrass (Sorghum halepense)
# Excerpt: as §1, §2
# [7] = tested on: lambsquarters (Chenopodium album)
# Excerpt: as §1, §2
# [8] = tested on: morningglory (Ipomoea coccinea)
# Excerpt: as §1, §2
# [9] = tested on: nutsedge, yellow (yellow nutsedge, Cyperus esculentus)
# Excerpt: as §1, §2
# [10] = tested on: oilseed rape (Brassica napus)
# Excerpt: as §1, §2
# [11] = tested on: pigweed (Amaranthus retroflexus)
# Excerpt: as §1, §2
# [12] = tested on: ragweed (common ragweed, Ambrosia elatior)
# Excerpt: as §1, §2
# [13] = tested on: ryegrass, Italian (Italian ryegrass, Lolium multiflorum)
# Excerpt: as §1, §2
# [14] = tested on: velvetleaf (Abutilon theophrasti)
# Excerpt: as §1, §2
# [15] = tested on: waterhemp (common waterhemp, Amaranthus rudis)
# Excerpt: as §1, §2
# [16] = Postemergence, 31 g ai/ha, scale 0 to 100 (0 no effect, 100 complete control)
# [17] = Postemergence, 62 g ai/ha, 0 to 100 scale (0 no effect, 100 complete control)
# [18] = Postemergence, 250 g ai/ha, scale 0 to 100, 0 no effect, 100 complete control, 13 to 15 d
# [19] = Preemergence, 31 g ai/ha, scale 0 to 100, 0 is no effect, 100 is complete control
# [20] = Preemergence, 62 g ai/ha, scale 0 to 100, 0 is no effect, 100 is complete control
# [21] = Preemergence, 125 g ai/ha, scale 0 to 100, 0 is no effect, 100 is complete control
# [22] = Preemergence, 250 g ai/ha, scale 0 to 100 (0 no effect, 100 complete control)
# [23] = postemergence, 125 g ai/ha, scale 0 to 100, 0 no effect, 100 complete control
smiles,measurement,setting,value
Cc1cc(C)c2ccccc2c1-c1c(OS(C)(=O)=O)c(C)nn(C)c1=O [Compound 154],"Plant response rating, Barnyardgrass",[1]; [16],70
same,Barnyardgrass plant response rating,[1]; [17],85
same,"Plant response rating, Barnyardgrass","[1]; Postemergence, 125 g ai/ha, scale 0 to 100, 0 is no effect, 100 is complete control",90
same,"Plant response rating, Barnyardgrass",[1]; [18],95
same,"Plant response rating, Barnyardgrass",[1]; [19],65
same,"Plant response rating, Barnyardgrass",[1]; [20],80
same,"Plant response rating, Barnyardgrass",[1]; [21],90
same,Barnyardgrass plant response rating,[1]; [22],95
same,"Plant response rating, Blackgrass",[2]; [16],60
same,Blackgrass plant response rating,[2]; [17],65
same,"Plant response rating, Blackgrass",[2]; [18],85
same,"Plant response rating, Blackgrass",[2]; [19],5
same,"Plant response rating, Blackgrass",[2]; [20],50
same,"Plant response rating, Blackgrass",[2]; [21],85
same,Blackgrass plant response rating,[2]; [22],90
same,Blackgrass plant response rating,[2]; [23],60
same,"Plant response rating, Corn",corn (Zea mays); [16],15
same,Corn plant response rating,corn (Zea mays); [17],5
same,"Plant response rating, Corn",corn (Zea mays); [18],5
same,"Plant response rating, Corn",corn (Zea mays); [19],5
same,"Plant response rating, Corn",corn (Zea mays); [20],5
same,"Plant response rating, Corn",corn (Zea mays); [21],5
same,Corn plant response rating,corn (Zea mays); [22],5
same,Corn plant response rating,corn (Zea mays); [23],5
same,"Plant response rating, Crabgrass, Large",[3]; [16],65
same,"Crabgrass, Large plant response rating",[3]; [17],70
same,"Plant response rating, Crabgrass, Large",[3]; [18],75
same,"Plant response rating, Crabgrass, Large",[3]; [19],70
same,"Plant response rating, Crabgrass, Large",[3]; [20],85
same,"Plant response rating, Crabgrass, Large",[3]; [21],90
same,"Crabgrass, Large plant response rating",[3]; [22],100
same,"Crabgrass, Large plant response rating",[3]; [23],70
same,"Plant response rating, Foxtail, Giant",[4]; [16],85
same,"Foxtail, Giant plant response rating",[4]; [17],90
same,"Plant response rating, Foxtail, Giant",[4]; [18],95
same,"Plant response rating, Foxtail, Giant",[4]; [19],85
same,"Plant response rating, Foxtail, Giant",[4]; [20],95
same,"Plant response rating, Foxtail, Giant",[4]; [21],100
same,"Foxtail, Giant plant response rating",[4]; [22],100
same,"Foxtail, Giant plant response rating",[4]; [23],95
same,"Plant response rating, Galium",[5]; [16],95
same,Galium plant response rating,[5]; [17],95
same,"Plant response rating, Galium",[5]; [18],95
same,"Plant response rating, Galium",[5]; [19],98
same,"Plant response rating, Galium",[5]; [20],95
same,"Plant response rating, Galium",[5]; [21],98
same,Galium plant response rating,[5]; [22],100
same,Galium plant response rating,[5]; [23],95
same,"Plant response rating, Johnsongrass",[6]; [16],5
same,Johnsongrass plant response rating,[6]; [17],5
same,"Plant response rating, Johnsongrass",[6]; [18],20
same,"Plant response rating, Johnsongrass",[6]; [19],10
same,"Plant response rating, Johnsongrass",[6]; [20],45
same,"Plant response rating, Johnsongrass",[6]; [21],50
same,Johnsongrass plant response rating,[6]; [22],75
same,Johnsongrass plant response rating,[6]; [23],20
same,"Plant response rating, Lambsquarters",[7]; [16],90
same,Lambsquarters plant response rating,[7]; [17],85
same,"Plant response rating, Lambsquarters",[7]; [18],95
same,"Plant response rating, Lambsquarters",[7]; [19],15
same,"Plant response rating, Lambsquarters",[7]; [20],60
same,"Plant response rating, Lambsquarters",[7]; [21],85
same,Lambsquarters plant response rating,[7]; [22],95
same,Lambsquarters plant response rating,[7]; [23],90
same,"Plant response rating, Morningglory",[8]; [16],95
same,Morningglory plant response rating,[8]; [17],98
same,"Plant response rating, Morningglory",[8]; [18],100
same,"Plant response rating, Morningglory",[8]; [19],45
same,"Plant response rating, Morningglory",[8]; [20],85
same,"Plant response rating, Morningglory",[8]; [21],85
same,Morningglory plant response rating,[8]; [22],90
same,Morningglory plant response rating,[8]; [23],98
same,"Plant response rating, Nutsedge, Yellow",[9]; [16],70
same,"Nutsedge, Yellow plant response rating",[9]; [17],60
same,"Plant response rating, Nutsedge, Yellow",[9]; [18],80
same,"Plant response rating, Nutsedge, Yellow",[9]; [19],0
same,"Plant response rating, Nutsedge, Yellow",[9]; [20],20
same,"Plant response rating, Nutsedge, Yellow",[9]; [21],70
same,"Nutsedge, Yellow plant response rating",[9]; [22],85
same,"Nutsedge, Yellow plant response rating",[9]; [23],85
same,"Plant response rating, Oilseed Rape",[10]; [16],75
same,Oilseed Rape plant response rating,[10]; [17],90
same,"Plant response rating, Oilseed Rape",[10]; [18],95
same,"Plant response rating, Oilseed Rape",[10]; [19],80
same,"Plant response rating, Oilseed Rape",[10]; [20],85
same,"Plant response rating, Oilseed Rape",[10]; [21],98
same,Oilseed Rape plant response rating,[10]; [22],98
same,Oilseed Rape plant response rating,[10]; [23],98
same,"Plant response rating, Pigweed",[11]; [16],65
same,Pigweed plant response rating,[11]; [17],85
same,"Plant response rating, Pigweed",[11]; [18],85
same,"Plant response rating, Pigweed",[11]; [19],55
same,"Plant response rating, Pigweed",[11]; [20],95
same,"Plant response rating, Pigweed",[11]; [21],100
same,Pigweed plant response rating,[11]; [22],100
same,Pigweed plant response rating,[11]; [23],90
same,"Plant response rating, Ragweed",[12]; [16],70
same,Ragweed plant response rating,[12]; [17],75
same,"Plant response rating, Ragweed",[12]; [18],90
same,"Plant response rating, Ragweed",[12]; [19],80
same,"Plant response rating, Ragweed",[12]; [20],95
same,"Plant response rating, Ragweed",[12]; [21],90
same,Ragweed plant response rating,[12]; [22],95
same,Ragweed plant response rating,[12]; [23],85
same,"Plant response rating, Ryegrass, Italian",[13]; [16],80
same,"Ryegrass, Italian plant response rating",[13]; [17],90
same,"Plant response rating, Ryegrass, Italian",[13]; [18],95
same,"Plant response rating, Ryegrass, Italian",[13]; [19],40
same,"Plant response rating, Ryegrass, Italian",[13]; [20],55
same,"Plant response rating, Ryegrass, Italian",[13]; [21],90
same,"Ryegrass, Italian plant response rating",[13]; [22],90
same,"Ryegrass, Italian plant response rating",[13]; [23],90
same,"Plant response rating, Velvetleaf",[14]; [16],70
same,Velvetleaf plant response rating,[14]; [17],85
same,"Plant response rating, Velvetleaf",[14]; [18],90
same,"Plant response rating, Velvetleaf",[14]; [19],40
same,"Plant response rating, Velvetleaf",[14]; [20],60
same,"Plant response rating, Velvetleaf",[14]; [21],85
same,Velvetleaf plant response rating,[14]; [22],85
same,Velvetleaf plant response rating,[14]; [23],85
same,"Plant response rating, Waterhemp",[15]; [16],75
same,Waterhemp plant response rating,[15]; [17],80
same,"Plant response rating, Waterhemp",[15]; [18],70
same,"Plant response rating, Waterhemp",[15]; [19],30
same,"Plant response rating, Waterhemp",[15]; [20],85
same,"Plant response rating, Waterhemp",[15]; [21],95
same,Waterhemp plant response rating,[15]; [22],100
same,Waterhemp plant response rating,[15]; [23],85
